{
  "source": "patent US10555987B2",
  "about": "“GHRH agonists for the treatment of ischemic disorders” (UNIVERSITY OF MIAMI, priority 2012, dated 2020)",
  "key": {"[1]": {"tested_on": "myocardial infarction (Fisher-344 rats)", "test": "Morphometric analysis of infarct size, rat MI model (Example 13)", "assay_type": "in vivo", "settings": "50 μg/kg s.c. twice daily for 4 weeks; mean ± SEM", "protocol": "(§1) Myocardial infarction (MI) was induced by permanent ligation of the left coronary artery in female 6-month-old Fisher-344 rats. Animals were randomly assigned to receive placebo (DMSO+propylene glycol) or one of the GHRH-agonists (JI-38, MR-356/P-20356, MR-409/P-27409, all 50 μg/kg), starting 4 weeks post-MI. All treatment was given subcutaneously twice daily for 4 weeks.\nRat hearts were processed using routine histological procedures. Samples were fixed in formalin.\n(§2) Paraffin sections were deparaffinized and rehydrated by immersion in xylene followed by a graded series of ethanol. Antigen retrieval was performed by a heat-induced method with citrate buffer (Dako, Carpinteria, Calif.). After blocking with 10% normal donkey serum, sections were incubated with a primary antibody at 37° C. for 1 hour, followed by application of secondary antibody. Omission of the primary antibodies on parallel sections was used as negative control. Nuclei were counterstained with DAPI (Invitrogen, Carlsbad, Calif.). The total numbers of positively-stained cells (c-kit, CD45, phospho-histone H3 [pH3]) were quantified per slide to calculate the number of cells per section on each sample. Morphometric analysis was performed using Adobe Photoshop CS3 (San Jose, Calif.)."}, "[2]": {"tested_on": "myocardial infarction (Fisher-344 rats)", "test": "Immunostaining of heart tissue (pH3, c-kit, arterioles), rat MI model (Example 13)", "assay_type": "in vivo", "protocol": "as §1, §2\nHeart sections were co-stained with isolectin (endothelial cell marker) and vascular smooth muscle (SMA22a) to identify arterioles which play a crucial role in cardiac repair. […] An inverse correlation between number of arterioles and infarct size was observed (FIG. 5C)."}, "[3]": {"tested_on": "GH release", "test": "GH releasing potency in vivo, subcutaneous administration (Example 14, Table 12)", "parameters": "species or system rat", "summary_of_the_method": "(§3)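 Potency is expressed relative to GHRH(1-29)NH2 and JI-38 (each = 1), via equivalent GHRH(1-29)NH2 dose read from a standard curve. Peptides in 5% mannitol given i.v. or s.c. to anaesthetised male Sprague-Dawley rats (200-250 g); serum GH measured by ELISA at selected times.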"}, "[4]": {"tested_on": "GH release", "test": "GH releasing potency in vivo, intravenous administration (Example 14, Table 13)", "parameters": "species or system rat", "settings": "i.v.", "summary_of_the_method": "as §3"}, "[5]": {"biological_target": "T1, GHRH receptor (Homo sapiens, UniProt Q02643)", "T1 sequence (Q02643 23-423)": "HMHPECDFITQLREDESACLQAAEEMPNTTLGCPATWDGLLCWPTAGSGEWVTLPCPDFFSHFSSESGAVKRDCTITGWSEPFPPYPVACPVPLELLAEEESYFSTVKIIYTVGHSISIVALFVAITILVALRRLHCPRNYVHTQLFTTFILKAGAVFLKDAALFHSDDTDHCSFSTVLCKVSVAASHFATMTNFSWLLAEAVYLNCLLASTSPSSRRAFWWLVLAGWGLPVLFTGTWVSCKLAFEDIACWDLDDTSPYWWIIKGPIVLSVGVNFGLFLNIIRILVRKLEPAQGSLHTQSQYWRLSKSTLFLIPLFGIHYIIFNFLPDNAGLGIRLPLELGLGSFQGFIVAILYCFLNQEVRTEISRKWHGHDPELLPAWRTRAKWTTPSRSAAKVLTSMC", "test": "GHRH receptor binding, competition with 125I-labeled JV-1-42, human pituitary membrane homogenates (Table 5)", "parameters": "Normal human pituitaries were purchased from the National Hormone and Peptide Program; tissue National Hormone and Peptide Program (A.F. Parlow, Harbor-UCLA Medical Center, Torrance, Calif.); host or cells: normal human pituitary, membrane fraction"}, "[6]": {"biological_target": "T1, GHRH receptor", "test": "GHRH receptor binding, competition with 125I-labeled JV-1-42, human pituitary membrane homogenates (Table 7)", "parameters": "Normal human pituitaries were purchased from the National Hormone and Peptide Program; tissue National Hormone and Peptide Program (A.F. Parlow, Harbor-UCLA Medical Center, Torrance, Calif.); host or cells: normal human pituitary, membrane fraction", "settings": "JI-38 = 1, Table 7", "source_text": "Normal human pituitaries were purchased from the National Hormone and Peptide Program (A.F. Parlow, Los Angeles, County Harbor-UCLA Medical Center, Torrance, Calif.)."}, "[7]": {"settings": "50 μg/kg s.c. twice daily for 4 weeks, mean ± SEM"}},
  "note": "Where “and” joins values, the source holds several entries; their conditions need not be identical. Equal entries are not always repeated. Non-standard residues stand in square brackets, D forms with d. Residues, ends and D or L forms follow the SMILES beside them. *: point of attachment. NMeY = CN[C@@H](Cc1ccc(O)cc1)C(=O)O; Agmatine = N=C(N)NCCCCN*; Nle = CCCC[C@H](N)C(=O)O; Orn = NCCC[C@H](N)C(=O)O; Abu = CC[C@H](N)C(=O)O",
  "data": [
    {"smiles": "CCCC[C@H](NC(=O)[C@@H](NC(=O)[C@H](CC(=O)O)NC(=O)[C@H](CCC(N)=O)NC(=O)[C@H](CC(C)C)NC(=O)[C@H](CC(C)C)NC(=O)[C@H](CCCN)NC(=O)[C@H](CCCNC(=N)N)NC(=O)[C@H](C)NC(=O)[C@H](CO)NC(=O)[C@H](CC(C)C)NC(=O)[C@H](CCC(N)=O)NC(=O)[C@H](CC)NC(=O)[C@H](CC(C)C)NC(=O)[C@@H](NC(=O)[C@H](CCCN)NC(=O)[C@H](CCCNC(=N)N)NC(=O)[C@H](Cc1ccc(O)cc1)NC(=O)[C@H](CO)NC(=O)[C@H](CCC(N)=O)NC(=O)[C@@H](NC(=O)[C@H](Cc1ccccc1)NC(=O)[C@@H](NC(=O)[C@H](C)NC(=O)[C@H](CC(=O)O)NC(=O)[C@H](C)NC(=O)[C@H](Cc1ccc(O)cc1)NC)[C@@H](C)CC)[C@@H](C)O)C(C)C)[C@@H](C)CC)C(=O)N[C@@H](CC(=O)O)C(=O)NCCCCNC(=N)N", "note": "[Peptide P-20356, [N—Me-Tyr^1, Gln^8, Orn^12, Abu^15, Orn^21, Nle^27, Asp^28, Agm^29]hGHRH(1-29) NH2] (H-[NMeY]ADAIFTQSYR[Orn]VL[Abu]QLSAR[Orn]LLQDI[Nle]D-Agmatine)", "values": [
      {"measurement": "MI size (%)", "setting": "[1]", "result": "37 ± 2.5", "unit": "%"},
      {"measurement": "c-kit (positive cells in the heart)", "setting": "[2]; [7]", "result": "59 ± 7.1"},
      {"measurement": "phospho H3 (positive cells in the heart)", "setting": "[2]; [7]", "result": "65 ± 9.3"},
      {"measurement": "number of arterioles", "setting": "[2]; isolectin / SMA22a co-staining of heart sections", "result": "significantly increased"},
      {"measurement": "potency as compared to JI-38 in both i.v. and s.c. tests", "setting": "[3]; both i.v. and s.c. tests", "result": "increased potency as compared to JI-38"},
      {"measurement": "Serum GH level at selected time after injection (ng/ml), 0 min", "setting": "[3]; male rats, s.c., dose 3 μg/kg, 0 min, mean ± SEM", "result": "25.3 ± 3.9", "unit": "ng/mL"},
      {"measurement": "Serum GH level at selected time after injection (ng/ml), 15 min", "setting": "[3]; male rats, s.c., dose 3 μg/kg, 15 min, mean ± SEM", "result": "305.4 ± 40.0", "unit": "ng/mL"},
      {"measurement": "Serum GH level at selected time after injection (ng/ml), 30 min", "setting": "[3]; male rats, s.c., dose 3 μg/kg, 30 min, mean ± SEM", "result": "152.4 ± 21.8", "unit": "ng/mL"},
      {"measurement": "Relative potency compared to GHRH(1-29), 15 min", "setting": "[3]; s.c., 15 min", "result": 91.2},
      {"measurement": "Relative potency compared to JI-38, 15 min", "setting": "[3]; s.c., 15 min, listed as MR-356", "result": "1.4 and 1.45"},
      {"measurement": "Relative potency compared to GHRH(1-29), 30 min", "setting": "[3]; s.c., 30 min", "result": 150.9},
      {"measurement": "Relative potency compared to JI-38, 30 min", "setting": "[3]; s.c., 30 min, listed as MR-356", "result": "1.4 and 1.35"},
      {"measurement": "Relative potency, 5 min", "setting": "[4]; 5 min, JI-38 = 1", "result": 1.17},
      {"measurement": "Relative potency, 15 min", "setting": "[4]; 15 min, JI-38 = 1", "result": 1.26},
      {"measurement": "Serum GH level at selected time after injection (ng/ml), 0 min", "setting": "[4]; dose 1 μg/kg, 0 min, mean ± SEM", "result": "37.8 ± 5.7", "unit": "ng/mL"},
      {"measurement": "Serum GH level at selected time after injection (ng/ml), 5 min", "setting": "[4]; dose 1 μg/kg, 5 min, mean ± SEM", "result": "632 ± 110", "unit": "ng/mL"},
      {"measurement": "Serum GH level at selected time after injection (ng/ml), 15 min", "setting": "[4]; dose 1 μg/kg, 15 min, mean ± SEM", "result": "250 ± 58.1", "unit": "ng/mL"},
      {"measurement": "Relative affinity (Binding potency) vs GHRH", "setting": "[5]; GHRH(1-29) = 1, Table 5", "result": 406.0},
      {"measurement": "Relative affinity (Binding potency) vs JI-38", "setting": "[5]; JI-38 = 1, Table 5", "result": 171},
      {"measurement": "Relative affinity (Binding potency) vs JI-38", "setting": "[6]", "result": 16.11}
    ]}
  ]
}
